Test results reported in PMC11054433, “Nature-Inspired 1-Phenylpyrrolo[2,1-a]isoquinoline Scaffold for Novel Antiproliferative Agents Circumventing P-Glycoprotein-Dependent Multidrug Resistance” (Pharmaceuticals, 2024).
Where “and” joins values, the source holds several entries; their conditions need not be identical. Identical values can stand only once. Like-named read-outs stand apart in the source and are kept apart here. One block for each compound: values may come before it.

Legend:
[1] = Kinetic solubility in PBS by RP-HPLC; assay type: physicochemical; conditions: phosphate buffered saline, 25 °C, kinetic from dmso stock
Experimental: Sample solution at 200 μM in PBS (50 mM, pH 7.4, KCl 0.15 M) from a 10 mM stock solution in DMSO was incubated at room temperature (25 ± 1 °C) for 2 h, following shaking of the suspension on an orbital shaker at 250 rpm, and then separated by […]. Immediately after the filtration step, 100 µL of filtrate was transferred into 100 µL of 1:1 (v/v) mixture of DMSO and PBS (50 mM, pH 7.4, KCl 0.15 M), to avoid precipitation from the saturated solution and analyzed by HPLC. The peak area was plotted against a calibration curve of the tested compound in MeOH [21]. Analytical conditions were as follows. Mobile Phase: MeOH/ammonium formate 20 mM pH 4.7 (70:30, 75:25); MeOH 0.1% TFA/H2O 0.1% TFA (70:30, 60:40); stationary phase: Phenomenex, Kinetex 5 μ, C18, 100 Å (150 × 4.6 mm); flux: 1 mL/min; injection: 10 μL, 265, 290, 320 nm wavelength. HPLC analyses were performed on an Agilent HPLC 1260 Infinity Series Integrated System (Agilent Technologies, Milan, Italy).

[2] = target: multidrug-resistance-associated protein-1 (MRP1) (Homo sapiens, UniProt P33527); experiment: Calcein-AM transport inhibition in MDCK-MRP1 cells overexpressing MRP1
Experimental: (§3) The P-gp inhibitory potency of eight DHPIQs was evaluated by measuring the transport inhibition of calcein-AM, a profluorescent P-gp substrate, in the MDCK-MDR1 cell line overexpressing P-gp. Moreover, to evaluate the MRP1 inhibitor activity, the same compounds were screened in MDCK-MRP1 cells overexpressing MRP1.
(§4) According to previously described assays [9], MDCK-MDR1 and MDCK-MRP1 cell lines (50,000 cells per well) were seeded into a black CulturePlate 96-well plate with 100 μL medium and allowed to become confluent overnight. […] Saline buffer (100 μL) was added to each well, and the plate was read by a PerkinElmer Victor3 spectrofluorimeter at excitation and emission wavelengths of 485 nm and 535 nm, respectively. In these experimental conditions, calcein cell accumulation in the absence and in the presence of the test compound was evaluated, and the fluorescence basal level was estimated by untreated cells. In the treated wells, the increase of fluorescence with respect to basal level was measured. IC50 values were determined by interpolating the curve of fluorescence increase percentage versus log [conc.].

[3] = test system: A549 (lung adenocarcinoma) cells; conditions: mean (SD), cited from earlier work
[4] = target: T1, human serum albumin (HSA) (Homo sapiens, UniProt P02768); experiment: Binding affinity to immobilized HSA by surface plasmon resonance (SPR)
Experimental: (§5) By plotting the response at equilibrium, the dissociation constant (KD) value was determined for each test compound.
(§6) Fatty acid-free HSA (A3782 from Merck, KGaA Sigma-Aldrich, Darmstadt, Germany) was applied to functionalize the surface of a COOH V sensor chip (Pall FortèBio, Fremont Boulevard, CA, USA), by using amine coupling (EDC/NHS). HSA aqueous stock solution was diluted at the final concentration of 50 μg·mL^−1 in 10 mM sodium acetate buffer (pH 5.0), and immobilization in peripheral flow cells 1 and 3 (unmodified dextran surface in middle flow cell 2 used as a reference) at a final apparent level of about 5000 RU was achieved by applying the following protocol: injection of EDC/NHS (freshly mixed 0.4 M EDC and 0.1 M NHS) 1:1 v/v at a flow of 25 μL·min^−1 for 4 min; injection of HSA solution at a flow of 25 μL·min^−1 for 8 min; capping on unreacted activated carboxyl groups by injection of 1 M ethanolamine solution (pH 9) at a flow of 25 μL·min^−1 for 8 min. The functionalized surface was then treated with repeated injection of 4 M NaCl, as a regenerating reagent, and conditioned overnight prior to use with pH 7.4 PBS (10 mM NaH2PO4 and 150 mM NaCl) as a running buffer. Each cycle (without the need of regeneration) for binding assay to HSA was carried out in PBS/4% v/v DMSO and consisted of a run buffer injection (60 s), injection of analyte single concentration for 120 s (ranging from 1 to 200 μM) at a flow 20 μL·min^−1, and a dissociation phase for 150 s (flow 20 μL·min^−1). Each measurement was performed at least in triplicate and analyzed by using QDAT software, vers 2.2.0.7 (non-linear regression analysis of 1:1 stoichiometric reversible binding model), and double referencing.

[5] = target: T2, P-glycoprotein (P-gp) (Homo sapiens, UniProt P08183); experiment: Calcein-AM transport inhibition in MDCK-MDR1 cells overexpressing P-gp; conditions: for IC50: P-gp, IC50, MDCK-MDR1 cells, calcein-AM, mean (SD), at least two independent experiments in triplicate
Experimental: as §3, §4

[6] = test system: RD (rhabdomyosarcoma) cells; conditions: mean (SD), cited from earlier work
[7] = test system: HeLa (adenocarcinoma of the cervix uterus) cells; conditions: mean (SD), cited from earlier work
[8] = Lipophilicity by RP-HPLC (polycratic capacity factor); assay type: physicochemical; conditions: capacity factor extrapolated to 100% aqueous mobile phase, aqueous component pH 4.7
Experimental: To quantitate the effect of hydrophobicity on the biological activity of the examined compounds, a relative lipophilicity scale was determined by RP-HPLC [20]. The polycratic capacity factor (log k′w) for each compound in Table 2 was experimentally determined (details in the experimental section) and compared with 1-octanol–water partition coefficient calculated (Clog P) with ACDLabs software (release 10.0; Advanced Chemistry Development, Inc., Toronto, ON, Canada). Log k′w values are quite well correlated with Clog Ps for the whole series (r^2 = 0.791). However, omitting from the regression the two Mannich bases 8b and 8c, which, due to their basicity (pKas about 6.9, estimated by ACDLabs software), should be predominantly in the protonated forms at pH 4.7 (i.e., the pH of the aqueous component of the mobile phase in RP-HPLC), the correlation slightly improves (r^2 = 0.859), providing a linear equation with a slope equal to +0.8 and an intercept of about −0.1.
The lipophilicity parameters were determined by an RP-HPLC technique. Methanol solution of DHPIQ derivatives (1 mg/mL) were analyzed by an Agilent 1260 infinite HPLC system (Agilent Technologies, Milan, Italy) equipped with a diode array detector (DAD), and a Phenomenex, Kinetex 5 μ, C18, 100 Å (150 × 4.6 mm), and eluted with different percentage of mobile phase composition (0.05 increments of MeOH volume fractions in 20 mM ammonium formate buffer at pH 4.7 or water 0.1% v/v TFA, with φ ranging between 0.85 and 0.30). The chromatographic measurements were carried out at 25 ± 1 °C at a flow rate of 1 mL·min^−1 and at 265, 290, 320 nm wavelengths. The log of capacity factors (log k′ = log (tR − t0)/t0) of each compound at different mobile phase compositions was calculated; tR represents the retention time of the solute and t0 is the column dead time, measured as the elution time of a KNO3 solution in MeOH. For each compound, the log k′ values increased linearly with decreasing MeOH volume fraction. The logarithms of the capacity factor extrapolated to 100% aqueous mobile phase (log k′w) were calculated from the linear regressions on at least five data points (r^2 > 0.9984).

[9] = test system: HCT116 (colon cancer) cells; conditions: mean (SD), cited from earlier work
[10] = target: T2, P-glycoprotein (P-gp); parameters: expressed in transfected cells; host or cells: MDCK-MDR1 (gift from Prof. P. Borst, NKI-AVL); method as in PMID 29802687; conditions: MDCK-MDR1 cells; ref [9]; cited from earlier work
[11] = target: P-gp versus MRP1 (Homo sapiens, UniProt P08183); experiment: Calcein-AM transport inhibition in MDCK-MDR1 cells overexpressing P-gp; conditions: human, MDCK-MDR1 cells and MDCK-MRP1 cells, probe calcein-AM
Experimental: as §3, §4

[12] = test system: RD (rhabdomyosarcoma) cells; experiment: MTT antiproliferative (cytotoxicity) assay, RD cells; assay type: cell-based, Human; conditions: 72 h, mean (SD), triplicate, n.a. = not active at 100 μM, >100 = less than 60% inhibition at 100 μM
Experimental: (§1) The newly synthesized 1-Ph-DHPIQs, along with the previously reported derivatives 4a, 4c, 6a and 6c, with camptothecin and doxorubicin as positive controls, were tested at the maximum concentration of 100 μM for their antiproliferative activity, using an MTT assay on RD, HCT116, HeLa and A549 cancer cell lines. Compounds showing more than 50% inhibition were tested at lower scalar concentrations, and IC50 values were calculated by interpolation of the dose-response curves (Table 1). […]
(§2) The antiproliferative activity of the newly synthesized compounds, along with some previously reported analogs, and camptothecin and doxorubicin as positive controls was determined by the MTT (3-(4,5-dimethylthiazol-2-yl)-2,5-diphenyltetrazolium bromide) assay. The cells were seeded at a concentration of 1 × 10 ^4 cells/200 μL in a 96-well plate and cultured at 37 °C in a humidified atmosphere with 5% CO2. After 24 h of incubation, scalar concentrations of each test compound (100 to 1.56 μmol·L^−1) were added to the cancer cell culture and the cells were then cultured under the same conditions for 72 hr. Each concentration of the test compound was assayed in triplicate. […] Wells with the 0.1% v/v DMSO were used as controls. After incubation, 20 μL of MTT (5 mg·mL^−1) was added to each well and the plates were incubated for a further 2 h. Next, media were removed from the plates, and 100 μL of DMSO was added to each well to dissolve the formed formazan crystals. Using a flatbed analyzer (Victor^3, PerkinElmer, Waltham, MA, USA), the optical density was determined at 530 nm, minus the measured background absorbance at 620 nm. The concentration value, which causes 50% inhibition of cell population growth (IC50), was determined from the dose-dependent curves using the OriginPro 9.0 software.

[13] = target: T1, human serum albumin (HSA); conditions: 10 μM, pH 7.4
Experimental: as §5, §6

[14] = test system: HCT116 (colon cancer) cells; experiment: MTT antiproliferative (cytotoxicity) assay, HCT116 cells; assay type: cell-based, Human; conditions: mean (SD), triplicate, n.a. = not active at 100 μM, >100 = less than 60% inhibition at 100 μM
Experimental: as §1, §2

[15] = test system: HeLa (adenocarcinoma of the cervix uterus) cells; experiment: MTT antiproliferative (cytotoxicity) assay, HeLa cells; assay type: cell-based, Human; conditions: 72 h, mean (SD), triplicate, n.a. = not active at 100 μM, >100 = less than 60% inhibition at 100 μM
Experimental: as §1, §2

[16] = test system: A549 (lung adenocarcinoma) cells; experiment: MTT antiproliferative (cytotoxicity) assay, A549 cells; assay type: cell-based, Human; conditions: mean (SD), triplicate, n.a. = not active at 100 μM, >100 = less than 60% inhibition at 100 μM
Experimental: The antiproliferative activity of the newly synthesized compounds, along with some previously reported analogs, and camptothecin and doxorubicin as positive controls was determined by the MTT (3-(4,5-dimethylthiazol-2-yl)-2,5-diphenyltetrazolium bromide) assay. […] Each concentration of the test compound was assayed in triplicate. […] Wells with the 0.1% v/v DMSO were used as controls. After incubation, 20 μL of MTT (5 mg·mL^−1) was added to each well and the plates were incubated for a further 2 h. Next, media were removed from the plates, and 100 μL of DMSO was added to each well to dissolve the formed formazan crystals. Using a flatbed analyzer (Victor^3, PerkinElmer, Waltham, MA, USA), the optical density was determined at 530 nm, minus the measured background absorbance at 620 nm.

[17] = Hydrolytic stability monitored by RP-HPLC; assay type: physicochemical; conditions: 0.15 M KCl
Excerpt: In particular, the transformation of the DHPIQ-2-aldehyde via Mannich reaction (8b,c) opens the road to future developments of new water-soluble antiproliferative DHPIQ derivatives endowed with the ability to inhibit P-gp and reverse MDR.

[18] = aqueous buffer, PBS (50 mM, pH 7.4, 0.15 M KCl) at 25 ± 1 °C, read-out: S (solubility)

T1 sequence (P02768 25-609): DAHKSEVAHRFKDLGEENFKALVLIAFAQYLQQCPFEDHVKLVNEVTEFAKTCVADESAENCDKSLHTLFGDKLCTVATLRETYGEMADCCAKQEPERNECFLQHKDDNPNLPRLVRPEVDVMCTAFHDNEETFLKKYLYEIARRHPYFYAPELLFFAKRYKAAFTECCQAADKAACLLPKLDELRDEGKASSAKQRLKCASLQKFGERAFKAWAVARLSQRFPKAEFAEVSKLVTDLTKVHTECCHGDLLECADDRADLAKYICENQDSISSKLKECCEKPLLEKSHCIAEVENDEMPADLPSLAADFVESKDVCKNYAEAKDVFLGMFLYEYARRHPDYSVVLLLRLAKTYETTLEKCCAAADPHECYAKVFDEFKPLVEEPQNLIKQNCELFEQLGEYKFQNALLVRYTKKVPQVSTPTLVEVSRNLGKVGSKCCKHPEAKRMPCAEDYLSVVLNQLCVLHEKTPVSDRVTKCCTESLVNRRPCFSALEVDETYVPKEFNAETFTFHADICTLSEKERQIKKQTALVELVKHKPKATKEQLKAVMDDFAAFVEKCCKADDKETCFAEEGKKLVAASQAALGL
T2 sequence (P08183 whole entry): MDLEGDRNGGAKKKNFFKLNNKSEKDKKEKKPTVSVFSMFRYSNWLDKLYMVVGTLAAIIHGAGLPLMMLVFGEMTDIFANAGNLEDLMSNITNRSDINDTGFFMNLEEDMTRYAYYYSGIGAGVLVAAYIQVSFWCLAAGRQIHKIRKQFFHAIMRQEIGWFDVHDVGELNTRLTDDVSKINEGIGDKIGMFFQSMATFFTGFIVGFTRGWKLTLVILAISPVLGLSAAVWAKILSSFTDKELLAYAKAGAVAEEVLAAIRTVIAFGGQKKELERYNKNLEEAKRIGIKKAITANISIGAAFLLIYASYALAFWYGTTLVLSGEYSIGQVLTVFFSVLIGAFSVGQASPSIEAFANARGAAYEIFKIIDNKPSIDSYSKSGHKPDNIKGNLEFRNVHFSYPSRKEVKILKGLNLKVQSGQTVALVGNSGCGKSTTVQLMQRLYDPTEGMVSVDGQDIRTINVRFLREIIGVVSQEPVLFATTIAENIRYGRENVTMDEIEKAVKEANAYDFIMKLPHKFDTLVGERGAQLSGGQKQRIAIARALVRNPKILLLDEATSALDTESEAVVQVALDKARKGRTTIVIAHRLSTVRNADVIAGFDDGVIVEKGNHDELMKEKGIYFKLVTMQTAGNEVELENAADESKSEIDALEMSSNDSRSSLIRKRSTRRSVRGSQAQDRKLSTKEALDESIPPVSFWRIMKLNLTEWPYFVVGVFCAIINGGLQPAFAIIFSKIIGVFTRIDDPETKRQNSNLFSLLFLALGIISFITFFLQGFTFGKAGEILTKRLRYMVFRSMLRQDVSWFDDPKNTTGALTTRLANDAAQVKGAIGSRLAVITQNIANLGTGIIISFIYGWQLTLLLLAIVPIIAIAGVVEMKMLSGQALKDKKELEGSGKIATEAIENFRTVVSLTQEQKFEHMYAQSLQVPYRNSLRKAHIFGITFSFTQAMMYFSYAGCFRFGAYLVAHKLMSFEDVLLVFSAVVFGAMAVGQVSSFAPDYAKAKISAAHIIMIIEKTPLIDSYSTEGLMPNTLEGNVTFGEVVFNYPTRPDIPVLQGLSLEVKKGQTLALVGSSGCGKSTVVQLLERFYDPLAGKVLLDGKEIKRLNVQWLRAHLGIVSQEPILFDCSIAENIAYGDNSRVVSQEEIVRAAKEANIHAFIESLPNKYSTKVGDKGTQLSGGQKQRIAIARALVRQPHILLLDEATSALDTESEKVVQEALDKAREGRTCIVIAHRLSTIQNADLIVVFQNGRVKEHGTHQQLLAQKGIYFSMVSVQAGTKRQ
Sequence of multidrug-resistance-associated protein-1 (MRP1) (P33527 whole entry): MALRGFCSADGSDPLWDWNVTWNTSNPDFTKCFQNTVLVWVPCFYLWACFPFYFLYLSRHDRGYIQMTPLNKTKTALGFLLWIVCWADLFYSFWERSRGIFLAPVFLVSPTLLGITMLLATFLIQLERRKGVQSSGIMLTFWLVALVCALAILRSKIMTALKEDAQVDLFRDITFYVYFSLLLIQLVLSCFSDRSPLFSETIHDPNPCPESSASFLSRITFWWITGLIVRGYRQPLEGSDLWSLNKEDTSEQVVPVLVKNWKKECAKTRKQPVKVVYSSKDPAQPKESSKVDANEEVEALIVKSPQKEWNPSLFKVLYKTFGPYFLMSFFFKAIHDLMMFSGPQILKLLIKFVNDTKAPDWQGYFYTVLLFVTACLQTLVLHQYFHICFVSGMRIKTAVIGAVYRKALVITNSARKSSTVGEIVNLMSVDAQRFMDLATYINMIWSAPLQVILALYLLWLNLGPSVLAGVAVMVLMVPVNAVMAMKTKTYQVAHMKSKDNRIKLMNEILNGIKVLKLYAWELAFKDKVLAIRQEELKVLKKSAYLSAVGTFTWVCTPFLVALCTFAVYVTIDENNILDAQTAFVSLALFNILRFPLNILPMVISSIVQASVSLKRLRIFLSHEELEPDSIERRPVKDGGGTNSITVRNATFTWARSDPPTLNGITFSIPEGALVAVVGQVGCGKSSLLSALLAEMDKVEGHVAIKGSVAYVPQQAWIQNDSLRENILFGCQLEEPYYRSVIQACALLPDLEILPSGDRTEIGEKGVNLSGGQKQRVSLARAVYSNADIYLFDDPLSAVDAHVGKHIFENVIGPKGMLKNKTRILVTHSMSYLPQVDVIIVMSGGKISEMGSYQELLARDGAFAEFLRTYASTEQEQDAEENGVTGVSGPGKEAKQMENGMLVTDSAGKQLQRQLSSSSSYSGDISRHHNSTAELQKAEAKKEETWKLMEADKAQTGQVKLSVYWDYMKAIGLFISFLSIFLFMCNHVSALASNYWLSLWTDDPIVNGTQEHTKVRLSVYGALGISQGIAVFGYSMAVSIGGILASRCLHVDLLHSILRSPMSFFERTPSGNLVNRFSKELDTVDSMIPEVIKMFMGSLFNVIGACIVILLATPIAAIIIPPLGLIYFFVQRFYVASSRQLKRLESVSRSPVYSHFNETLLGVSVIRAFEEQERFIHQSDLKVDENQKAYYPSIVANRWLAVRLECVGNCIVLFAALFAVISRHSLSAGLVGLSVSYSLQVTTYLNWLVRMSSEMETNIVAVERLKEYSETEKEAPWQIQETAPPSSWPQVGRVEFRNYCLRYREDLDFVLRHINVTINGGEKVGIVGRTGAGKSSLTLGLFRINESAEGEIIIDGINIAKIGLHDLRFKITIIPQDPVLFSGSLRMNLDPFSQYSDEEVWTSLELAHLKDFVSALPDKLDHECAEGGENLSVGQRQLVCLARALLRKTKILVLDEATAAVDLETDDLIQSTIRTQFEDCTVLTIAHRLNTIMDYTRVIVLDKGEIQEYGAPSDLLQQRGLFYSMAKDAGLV
Sequence of P-gp versus MRP1 (P08183 whole entry): as the sequence (P08183 whole entry) above

Compound: COc1cc2c(cc1OC)-c1c(-c3ccc(Cl)cc3)c(C=O)cn1CC2 [Compound 4a]
solubility at 2 h [1, 18]: 6.66 µM | IC50 [2]: 21.9 µM | IC50 ([3]; ref [5]): 38.6 µM | Kd [4]: 1.6 µM | IC50 [5]: 25.3 µM | P-gp/MRP1 selectivity (toward P-gp) ([5]; ratio of MRP1 and P-gp inhibition potency): unselective | IC50 ([6]; ref [5]): 17.6 µM | IC50 ([7]; ref [5]): 33 µM | Log k′w [8]: 4.32 | IC50 ([9]; ref [5]): 22 µM

Compound: CCOc1ccc(-c2c(C=O)cn3c2-c2cc(OCC)c(OCC)cc2CC3)cc1OCC [Compound 4c]
IC50 ([3]; ref [8]): 19.7 µM | IC50 ([6]; ref [8]): 21.3 µM | IC50 ([7]; ref [8]): 44.5 µM | IC50 ([9]; ref [8]): 11.8 µM | IC50 [10]: < 0.5 µM

solubility at 2 h [1, 18]: 41.7 µM | solubility at 2 h ([1]; pH 7.4, aqueous buffer, ‘practically insoluble’ threshold of US and European Pharmacopoeia, read-out: Solubility category in buffered water solution at neutral pH): < 100 µg/mL | IC50 [2]: 12.1 µM | Kd [4]: 26.9 µM | IC50 [5]: < 0.5 µM and 0.45 µM | Predicted fraction bound to HSA [13]: less than 40% | Log k′w [8]: 4.31 | Hydrolytic stability at pH 2 ([17]; 0.01 M HClaq, pH 2, 25 °C): stable | Hydrolytic stability at pH 7.4 ([17]; 50 mM PBS, pH 7.4, 25 °C): stable
Compound: CCOc1ccc(-c2c(CN3CCOCC3)cn3c2-c2cc(OCC)c(OCC)cc2CC3)cc1OCC [Compound 8c, 1-(3,4-Diethoxyphenyl)-8,9-diethoxy-2-(morpholin-4-ylmethyl)-5,6-dihydropyrrolo[2,1-a]isoquinoline]
selectivity ratio [11]: ~30 | IC50 [12]: < 20 µM and 18.6 µM | IC50 ([12]; Homo sapiens, Rhabdomyosarcoma cell): < 21 µM | IC50 ([14]; 72 h): 15.7 µM | IC50 ([14]; Homo sapiens, HCT-116, 72 h): < 21 µM | IC50 [15]: 17.5 µM | IC50 ([15]; Homo sapiens, HeLa): < 21 µM | IC50 ([16]; 72 h): 20.8 µM | IC50 ([16]; Homo sapiens, A549, 72 h): < 21 µM
